From patent publication US20220332726A1, “NITROXIDE DERIVATIVE OF ROCK KINASE INHIBITOR” (VIVAVISION (SHANGHAI) LTD, priority 2020, published 2022)

What was measured:
ROCK2 = ROCK2 (Homo sapiens, UniProt O75116); assay: ROCK2 kinase inhibitor activity test (HTRF); type: biochemical; details: ROCK2 1 nM, substrate 500 nM, ATP 6 uM, 1.5 hours at room temperature, read-out: ROCK2 kinase inhibitor activities (IC50)
Description: ROCK2 Kinase Inhibitor Activity Test
1) 4× ROCK2 reaction solution, 4×ATP reaction solution, 4× substrate solution, and 4× compound solution were prepared according to experimental requirements.
2) 2.5 μL of 4× kinase solution and 2.5 μL of diluted 4× test compound solutions with different concentration gradients were added to a 384-well plate. 2 replicate wells were provided for each concentration, and an enzyme solution blank control group and a negative control group (DMSO group) were provided at the same time. Centrifugation was performed at 1000 rpm for 1 minute, and the enzyme and the compounds were mixed. 2.5 μL of 4× substrate solution was added to the 384-well plate, centrifugation was performed at 1000 rpm for 1 minute, 2.5 μL of 4× ATP solution was added to the 384-well plate, centrifugation was performed at 1000 rpm for 1 minute to start the enzyme reaction, and incubation was performed at room temperature for 1.5 hours.
The final concentration of each component of the ROCK2 reaction was: ROCK2: 1 nM, substrate: 500 nM, ATP: 6 uM, and the final concentration range of the test compounds was: 100 nM to 5 pM.
3) 4× Streptavidin-XL-665 detection solution was prepared according to experimental requirements.
4) After the enzyme reaction was completed, 5 ul of 4× Streptavidin-XL-665 detection solution was added to each well of the 384-well plate, and centrifugation was performed at 1000 rpm for 1 minute. 5 μL of 4×STK Antibody-cryptate detection antibody solution was added to each well of the 384-well plate, centrifugation was performed at 1000 rpm for 1 minute, and incubation was performed for 1 hour at room temperature.
5) After antibody incubation was completed, the signal value of each well was measured by the HTRF program on an Envision plate reader.
1) Taking the enzyme solution blank control group as 100% inhibition rate and the negative control group (DMSO group) as 0% inhibition rate, the percentage inhibition rate corresponding to each concentration of the test compound was calculated.
2) In the GraphPad Prism software, a nonlinear regression analysis was performed on the logarithm of the concentrations of the test compounds and the corresponding percentage inhibition rates to obtain the half-inhibitory concentrations (IC50) of the test compounds.
The ROCK2 kinase inhibitor activities (IC50) of the compounds detected by this method are as follows: […]

[1] = test system: Phospho-Myosin Light Chain2 (Ser19); assay: Cell activity test: MLC2 (Ser19) phosphorylation in A7R5 cells (Western blot); type: cell-based; details: starved 20 hours, compound treatment 60 minutes, MLC2 (Ser19) phosphorylation corrected with GAPDH, read-out: cell activities (IC50)
Description: Example 43: Cell Activity Test
1) The A7R5 cells in the logarithmic growth phase were digested, 2E5 cells per well were inoculated in a 6-well plate and incubated overnight at 37° C. with 5% CO2, and the cell culture medium was replaced with a starvation medium containing 0.05% FBS after 24 hours. The cells were starved for 20 hours.
2) The starvation medium was removed, the cells were treated with the prepared compound concentration gradient for 60 minutes, VIP-5021 (10 uM) was set as the positive control, and the DMSO group was set as the negative control.
3) After the compound treatment, the compound solutions were aspirated, washed with PBS two times, 100 ul of cell lysate was added to each well, the cells were gently scraped with a cell scraper, and the cells were transferred to a centrifuge tube and lysed on ice for 60 minutes.
4) After the lysis, centrifugation was performed at 4° C. and 14000 rpm for 15 minutes, the lysate supernatant was collected, protein quantification was performed using the BCA method, the protein concentration was adjusted, the loading buffer was added according to proportion, and treatment was performed at 100° C. for 10 minutes to denature the protein.
5) An electrophoresis equipment was assembled, 20 ug of total protein was loaded per sample, the voltage was fixed at 125 V, and electrophoresis was performed for 90 minutes. After the electrophoresis was completed, the membrane transfer system was assembled with a fixed current of 300 mA and the membrane was transferred for 120 minutes. After the membrane transfer was completed, the PVDF membrane was removed and washed with PBS two times. A blocking solution was added to block at room temperature for 60 minutes. The blocking solution was removed, a solution containing the primary antibody (Phospho-Myosin Light Chain2 (Ser19)) (antibody dilution ratio 1:1000) was added, GAPDH was selected as internal control, and incubation was performed overnight at 4° C.
6) Washing was performed with PBST three times, HRP-antibody containing the corresponding species (secondary antibody dilution ratio 1:2000) was added, incubation was performed at room temperature for 60 minutes, and washing was performed with PBST three times. HRP chemiluminescence substrate was prepared, and dropwisely added on the PVDF membrane based on 0.1 mL per square centimeter to react for 30 seconds, and the chemiluminescence signal was collected with a gel imager (ChemiDoc XRS+(BIO-RAD)).
7) Each band was quantitatively analyzed using image J software, and the phosphorylated protein level of Phospho-Myosin Light Chain2 (Ser19) in each sample was corrected using GAPDH expression as internal reference.
1) Taking the MLC2 (Ser19) protein phosphorylation level of the highest concentration compound sample as 100% inhibition rate, and taking the MLC2 (Ser19) protein phosphorylation level of the negative control group (DMSO group) as 0% inhibition rate, the percentage inhibition rate corresponding to each concentration of the test compounds was calculated.
2) In the GraphPad Prism software, a nonlinear regression analysis was performed on the logarithm of the concentrations of the test compounds and the corresponding percentage inhibition rates to obtain the half-inhibitory concentrations (IC50) of the cell levels of the test compounds.
The cell activities (IC50) of the compounds detected by this method are as follows: […]

Chain of ROCK2 (O75116 whole entry): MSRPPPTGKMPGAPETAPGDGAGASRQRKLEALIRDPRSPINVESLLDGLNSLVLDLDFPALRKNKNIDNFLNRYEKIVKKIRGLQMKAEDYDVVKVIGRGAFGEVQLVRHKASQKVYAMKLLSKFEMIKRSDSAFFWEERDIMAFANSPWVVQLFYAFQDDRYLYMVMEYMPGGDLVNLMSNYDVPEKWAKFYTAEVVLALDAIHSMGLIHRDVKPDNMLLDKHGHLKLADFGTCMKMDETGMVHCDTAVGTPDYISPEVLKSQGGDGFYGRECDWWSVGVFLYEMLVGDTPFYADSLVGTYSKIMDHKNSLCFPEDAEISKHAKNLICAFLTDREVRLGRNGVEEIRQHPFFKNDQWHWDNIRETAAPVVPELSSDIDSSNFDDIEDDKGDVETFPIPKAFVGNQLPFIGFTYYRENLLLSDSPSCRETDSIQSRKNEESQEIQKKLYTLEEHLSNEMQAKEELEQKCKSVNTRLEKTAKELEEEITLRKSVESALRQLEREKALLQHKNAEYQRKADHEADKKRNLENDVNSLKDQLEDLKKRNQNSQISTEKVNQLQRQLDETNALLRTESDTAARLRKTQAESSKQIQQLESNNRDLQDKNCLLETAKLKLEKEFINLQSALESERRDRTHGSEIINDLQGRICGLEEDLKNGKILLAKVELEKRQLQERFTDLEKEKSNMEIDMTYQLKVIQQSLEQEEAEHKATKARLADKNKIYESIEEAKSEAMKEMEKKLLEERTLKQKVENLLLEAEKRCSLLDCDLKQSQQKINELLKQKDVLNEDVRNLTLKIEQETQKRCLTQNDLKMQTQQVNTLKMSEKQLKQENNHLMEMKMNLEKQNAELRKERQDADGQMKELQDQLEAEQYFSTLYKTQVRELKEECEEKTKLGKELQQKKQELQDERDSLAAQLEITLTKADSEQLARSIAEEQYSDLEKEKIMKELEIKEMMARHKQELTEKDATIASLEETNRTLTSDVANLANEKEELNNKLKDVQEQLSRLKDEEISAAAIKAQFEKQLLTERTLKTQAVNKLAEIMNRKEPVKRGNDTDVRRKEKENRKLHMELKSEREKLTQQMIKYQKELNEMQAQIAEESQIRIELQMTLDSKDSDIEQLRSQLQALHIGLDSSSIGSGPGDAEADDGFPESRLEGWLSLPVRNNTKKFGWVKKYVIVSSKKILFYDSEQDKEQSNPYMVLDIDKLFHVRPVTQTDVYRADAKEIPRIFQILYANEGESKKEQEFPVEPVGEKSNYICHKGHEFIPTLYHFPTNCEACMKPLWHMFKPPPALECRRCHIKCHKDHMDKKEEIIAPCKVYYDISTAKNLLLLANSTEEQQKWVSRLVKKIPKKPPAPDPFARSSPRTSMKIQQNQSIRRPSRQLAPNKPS

| SMILES | IC50 (ROCK2) | IC50 [1] |
| --- | --- | --- |
| NC[C@@H](C(=O)Nc1cc2ccncc2s1)c1ccc(COC(=O)OCCCCO[N+](=O)[O-])cc1 [Example 13, (S)-4-(3-amino-1-oxo-1-(thieno[2,3-c]pyridin-2-ylamino)prop-2-yl)benzyl(4-(nitrooxy)butyl)carbonate] | 1.51 nM | 39.5 nM |
| NCC(C(=O)Nc1cc2ccncc2s1)c1ccc(OCC(CO[N+](=O)[O-])O[N+](=O)[O-])cc1 (stereo not shown) [Example 7, 3-(4-(3-amino-1-oxo-1-(thieno[2,3-c]pyridin-2-ylamino)prop-2-yl)phenoxy)propane-1,2-dinitrate] | 2.19 nM | 8.8 nM |
| NC[C@@H](C(=O)Nc1cc2ccncc2s1)c1ccc(CCO[N+](=O)[O-])cc1 [Example 11, (S)-4-(3-amino-1-oxo-1-(thieno[2,3-c]pyridin-2-ylamino)propan-2-yl)phenethyl nitrate] | 6.01 nM | 21.4 nM |
| NC[C@@H](C(=O)Nc1cc2ccncc2s1)c1ccc(CO[N+](=O)[O-])cc1 [Example 1, (S)-4-(3-amino-1-oxo-1-(thieno[2,3-c]pyridin-2-ylamino)prop-2-yl)benzyl nitrate] | 0.5 nM | 53 nM |
| NCC(C(=O)Nc1cc2ccncc2s1)c1ccc(CCCO[N+](=O)[O-])cc1 (stereo not shown) [Example 8, 3-(4-(3-amino-1-oxo-1-thieno[2,3-c]pyridin-2-ylamino)prop-2-yl)phenyl)propyl nitrate] | 5.9 nM | 35.8 nM |
| NC[C@@H](C(=O)Nc1cc2ccncc2s1)c1ccc(COC(=O)CCCCO[N+](=O)[O-])cc1 [Example 9, (S)-4-(3-amino-1-oxo-1-(thieno[2,3-c]pyridin-2-ylamino)prop-2-yl)benzyl 5-(nitrooxy)valerate] | 1.02 nM | 30.3 nM |
| NC[C@@H](C(=O)Nc1cc2cnccc2s1)c1ccc(COC(=O)CC[C@H](CO[N+](=O)[O-])O[N+](=O)[O-])cc1 [Example 33, 4-((S)-3-amino-1-oxy-1-(thieno[2,3-c]pyridin-2-ylamino)prop-2-yl)benzyl(R)-4,5-bis(nitrooxy)valeric acid] | 1.18 nM |  |
| NCC(C(=O)Nc1cc2ccncc2s1)c1ccc(CCCCO[N+](=O)[O-])cc1 (stereo not shown) [Example 10, 4-(4-(3-amino-1-oxo-1-(thieno[2,3-c]pyridin-2-ylamino)prop-2-yl)phenyl)butyl nitrate] | 19.3 nM |  |
| NC[C@@H](C(=O)Nc1cc2c(F)cncc2s1)c1ccc(CO[N+](=O)[O-])cc1 [Example 12, (S)-4-(3-amino-1-((4-fluorothieno[2,3-c]pyridin-2-yl)amino)-1-oxoprop-2-yl)benzyl nitrate] | 2.95 nM |  |
| NC[C@@H](C(=O)Nc1cc2ccncc2s1)c1ccc(COC(=O)c2cccc(CCO[N+](=O)[O-])c2)cc1 [Example 28, (S)-4-(3-amino-1-oxy-1-(thieno[2,3-c]pyridin-2-ylamino)prop-2-yl)benzyl 3-(2-(nitrooxy)ethyl)benzoate] | 1.32 nM |  |
